Experimental data from ChEMBL document CHEMBL6078641, “Modulation of aryl hydrocarbon receptor activity by halogenated indoles” (Bioorg Med Chem, 2024).
pEC50, pIC50, pKi: −log10 of the molar value.

How the values were obtained:
[1] = system: LS174T; assay: Cytotoxicity against human LS174T cells upto 200 uM incubated for 24 hrs by MTT assay; format: toxicity, cell-based
[2] = Induction of CYP1A1 mRNA expression in human LS180 cells incubated for 4 hrs by chromatin immunoprecipitation assay; format: functional
[3] = target: T1, Aryl hydrocarbon receptor (Mus musculus, UniProt P30561); assay: Displacement of [3H]-TCDD from AhR in mouse Hepa1c1c7 cell cytosolic lysate at 50 uM by competitive binding assay relative to control; format: subcellular, Cytosol; conditions: Hepa-1c1c7, mouse, read-out: Activity
T1 sequence (P30561 whole entry): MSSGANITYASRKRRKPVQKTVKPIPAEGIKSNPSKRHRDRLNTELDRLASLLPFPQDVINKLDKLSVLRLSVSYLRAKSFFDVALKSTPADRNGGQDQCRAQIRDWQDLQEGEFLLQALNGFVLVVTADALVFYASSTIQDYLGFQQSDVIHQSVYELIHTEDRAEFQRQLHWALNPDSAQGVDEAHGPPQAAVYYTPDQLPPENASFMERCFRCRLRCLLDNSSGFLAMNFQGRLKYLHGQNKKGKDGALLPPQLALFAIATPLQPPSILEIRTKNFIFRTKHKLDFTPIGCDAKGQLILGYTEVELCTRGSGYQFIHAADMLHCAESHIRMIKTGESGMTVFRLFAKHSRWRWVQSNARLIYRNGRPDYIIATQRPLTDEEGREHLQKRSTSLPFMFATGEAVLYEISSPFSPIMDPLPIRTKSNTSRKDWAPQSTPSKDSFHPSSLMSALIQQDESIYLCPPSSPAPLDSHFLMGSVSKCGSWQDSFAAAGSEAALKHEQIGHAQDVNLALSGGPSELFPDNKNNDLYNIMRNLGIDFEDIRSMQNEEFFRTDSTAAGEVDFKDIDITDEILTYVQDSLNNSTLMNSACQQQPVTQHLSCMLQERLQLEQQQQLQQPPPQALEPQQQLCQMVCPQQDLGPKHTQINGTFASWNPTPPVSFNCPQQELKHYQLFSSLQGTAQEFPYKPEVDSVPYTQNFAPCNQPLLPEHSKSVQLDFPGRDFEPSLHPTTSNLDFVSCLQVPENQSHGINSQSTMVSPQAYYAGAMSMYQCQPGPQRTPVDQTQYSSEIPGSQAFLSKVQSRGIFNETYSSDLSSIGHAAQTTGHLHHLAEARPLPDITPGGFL

[4] = target: T1, Aryl hydrocarbon receptor; assay: Displacement of [3H]-TCDD from AhR in mouse Hepa1c1c7 cell cytosolic lysate by competitive binding assay; format: subcellular, Cytosol; conditions: for Activity: mouse, cytosol, dose 0.1-100 µM
[5] = target: T2, Aryl hydrocarbon receptor (Homo sapiens, UniProt P35869); assay: Agonist activity at Luc-fused AhR (unknown origin) transcriptional activity expressed in human LS174T cells at 100 uM incubated for 4 hrs by luciferase reporter gene assay relative to control; format: cell-based; conditions: read-out: Activity
T2 sequence (P35869 whole entry): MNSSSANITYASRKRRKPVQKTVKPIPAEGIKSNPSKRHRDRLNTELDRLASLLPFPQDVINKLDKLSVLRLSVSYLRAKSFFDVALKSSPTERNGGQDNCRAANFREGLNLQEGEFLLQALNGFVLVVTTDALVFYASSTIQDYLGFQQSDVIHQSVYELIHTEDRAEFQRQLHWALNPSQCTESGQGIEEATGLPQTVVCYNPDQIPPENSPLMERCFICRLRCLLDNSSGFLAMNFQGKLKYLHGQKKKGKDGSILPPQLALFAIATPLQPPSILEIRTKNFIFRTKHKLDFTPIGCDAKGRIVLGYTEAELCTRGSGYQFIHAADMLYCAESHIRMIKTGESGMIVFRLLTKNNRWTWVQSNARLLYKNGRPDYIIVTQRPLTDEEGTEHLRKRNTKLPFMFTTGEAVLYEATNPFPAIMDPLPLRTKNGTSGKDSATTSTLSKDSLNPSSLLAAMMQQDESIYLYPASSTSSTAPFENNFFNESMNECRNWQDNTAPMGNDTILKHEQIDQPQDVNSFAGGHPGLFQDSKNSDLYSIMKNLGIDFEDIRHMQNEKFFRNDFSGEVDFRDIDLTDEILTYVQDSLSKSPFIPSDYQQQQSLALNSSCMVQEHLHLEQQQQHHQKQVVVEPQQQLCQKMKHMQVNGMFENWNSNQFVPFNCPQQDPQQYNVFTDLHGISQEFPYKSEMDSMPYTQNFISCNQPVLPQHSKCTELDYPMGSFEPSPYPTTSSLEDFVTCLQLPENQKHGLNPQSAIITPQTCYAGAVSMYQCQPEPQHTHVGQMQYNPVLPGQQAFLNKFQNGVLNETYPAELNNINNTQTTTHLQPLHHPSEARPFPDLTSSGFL

[6] = target: T2, Aryl hydrocarbon receptor; assay: Agonist activity at Luc-fused AhR (unknown origin) transcriptional activity expressed in human LS174T cells incubated for 4 hrs by luciferase reporter gene assay; format: cell-based
[7] = Induction of CYP1A1 mRNA expression in human LS180 cells at 25 uM incubated for 4 hrs by chromatin immunoprecipitation assay relative to control; format: functional
[8] = target: T2, Aryl hydrocarbon receptor; assay: Agonist activity at Luc-fused AhR (unknown origin) transcriptional activity expressed in human LS174T cells incubated for 24 hrs by luciferase reporter gene assay; format: cell-based
[9] = system: LS174T; assay: Cytotoxicity against human LS174T cells assessed as decrease in cell viability at 200 uM incubated for 24 hrs by MTT assay relative to control; format: toxicity, cell-based
[10] = Induction of CYP1A1 mRNA expression in human LS180 cells assessed as fold increase at 100 uM incubated for 24 hrs by qRT-PCR analysis relative to control; format: functional
[11] = Induction of CYP1A1 mRNA expression in human LS180 cells assessed as fold increase at 100 uM incubated for 8 hrs by qRT-PCR analysis relative to control; format: functional

Row | Structure (SMILES) | activity at 100 µM [5] [%] | pEC50 [6] | Activity [1] | EC80 [2] [µM] | further results
1 | Fc1ccc2cc[nH]c2c1 |  |  | Non-toxic |  | 
2 | Clc1cccc2cc[nH]c12 |  |  | Non-toxic |  | 
3 | O=C1Cc2ccc(Cl)cc2N1 |  |  | Non-toxic | 0.3 | inhibition at 50 µM [3]: 50%; pIC50 [4]: 5.13; pKi [4]: 5.43; Activity [4]: Dose-dependent-effect
4 | Brc1cccc2[nH]ccc12 |  |  | Non-toxic |  | 
5 | O=C1Cc2cccc(Cl)c2N1 |  |  | Non-toxic |  | 
6 | O=C1Cc2cc(Cl)ccc2N1 |  |  | Non-toxic |  | 
7 | Brc1ccc2cc[nH]c2c1 |  |  | Non-toxic | 4.1 | pIC50 [4]: 4.36; pKi [4]: 4.66; Activity [4]: Dose-dependent-effect
8 | Fc1ccc2[nH]ccc2c1 |  |  | Non-toxic |  | 
9 | Brc1cccc2cc[nH]c12 |  |  | Non-toxic | 5.5 | inhibition at 50 µM [3]: > 70%
10 | Fc1cccc2[nH]ccc12 |  |  | Non-toxic | 5.1 | inhibition at 50 µM [3]: > 70%; pIC50 [4]: 4.74; pKi [4]: 5.04; Activity [4]: Dose-dependent-effect
11 | O=C1Cc2cc(Br)ccc2N1 |  |  | Non-toxic | 4.7 | inhibition at 50 µM [3]: 20%; pIC50 [4]: < 4.00; Activity [4]: Dose-dependent-effect
12 | Fc1cccc2cc[nH]c12 |  |  | Non-toxic | 3.8 | inhibition at 50 µM [3]: > 70%; pIC50 [4]: 4.66; pKi [4]: 4.96; Activity [4]: Dose-dependent-effect
13 | O=C1Cc2cc(F)ccc2N1 |  |  | Non-toxic |  | 
14 | Clc1cc2c(cc1Cl)Oc1cc(Cl)c(Cl)cc1O2 [2,3,7,8-TETRACHLORODIBENZO-P-DIOXIN] |  |  |  |  | fold change (FC) [10]: ~92; fold change (FC) [11]: ~26
15 | c1ccc2[nH]ccc2c1 [INDOLE] | 94 | 4.95 | Non-toxic |  | pEC50 [8]: 4.37

Further lines, with some results ahead:

Row | activity at 100 µM [5] [%] | pEC50 [6] | Structure (SMILES) | Activity [1] | EC80 [2] [µM] | further results
16 | 68 | 5.60 | O=C1Cc2ccc(Br)cc2N1 | Non-toxic | 33.1 | inhibition at 50 µM [3]: 10%; Efficacy [7]: 12%; pIC50 [4]: < 4.00; Activity [4]: Dose-dependent-effect; pEC50 [8]: 4.73
17 | 108 | 5.17 | Brc1ccc2[nH]ccc2c1 | Non-toxic |  | pEC50 [8]: 4.24
18 | 92 | 5.37 | Clc1ccc2cc[nH]c2c1 | Non-toxic |  | pEC50 [8]: 4.09
19 | 30 | 4.62 | Clc1ccc2[nH]ccc2c1 | Non-toxic |  | Activity [9]: 50%; pEC50 [8]: 4.11
20 | 15 | 5.10 | Clc1cccc2[nH]ccc12 | Non-toxic |  | Activity [9]: 50%
21 | 86 | 5.28 | O=C1Cc2ccccc2N1 [OXINDOLE] | Non-toxic |  | pEC50 [8]: 4.09
